The text below walks through data of patent US7732468B2, “3-aryl-6-aryl-[ 1,2,4]triazolo[3,4-b][1,3,4]thiadiazoles and related compounds as activators of caspases and inducers of apoptosis and the use thereof” (Cytovia, Inc., priority 2006, dated 2010).

Each structure is given as a SMILES string.

What all share (assay type): cell-based
The test system of assay [1] is Human breast cancer cell lines T-47D. As to the kind of experiment: Caspase cascade activation (Ac-DEVD-R110 fluorogenic substrate) in T-47D cells. To be noted: T47D cells, 48 h incubation, read-out: caspase potency EC50 T47D. In outline:
(§1)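 48 h compound exposure (0.016–10 μM final), 37 °C, 5% CO2; add 14 μM Ac-DEVD-R110 in lysolecithin/DTT/PIPES pH 7.2; RT 3 h; fluorescence 485/530 nm. Net RFU vs untreated control → EC50 by sigmoidal fit.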

In assay [2] the test system is human colon carcinoma cell line HCT116. The assay is described as follows: Caspase cascade activation in HCT116 cells. To be noted: HCT-116, 48 h incubation, read-out: caspase potency EC50 HCT116. Put shortly:
as §1

For assay [3], the system named is human hepatocellular carcinoma cell line SNU398. The assay is described as follows: Caspase cascade activation in SNU398 cells. To be noted: SNU-398, 48 h incubation, read-out: caspase potency EC50 SNU398. In outline: as §1
The test system of assay [4] is human Burkitt's lymphoma cell line Namalwa. The assay is described as follows: Caspase cascade activation in Namalwa cells. The settings on record: Burkitts lymphoma cell, 48 h incubation, read-out: caspase potency EC50 Namalwa. Put shortly:
as §1

The test system of assay [5] is Human breast cancer cell lines T-47D. The assay is described as follows: Inhibition of cell proliferation (GI50, CellTiter-Glo) in T-47D cells. The settings on record: T47D cells, 48 h incubation. The method, then: (§2) Human breast cancer cell lines T-47D, MX1 and MDAMB435, human colon carcinoma cell line HCT116, human leukemia cell line K562, human lymphoma cell line Raji, human B cell lymphoblastoid cell line Ramos, and human Burkitt's lymphoma cell line Namalwa were grown and harvested as in Example 14. An aliquot of […] of cells (4.4×10^4 cells/mL) was added to a well of a 96-well microtiter plate containing 5 μL of a 10% DMSO in RPMI-1640 media solution containing 10 nM to 100 μM of 6-(3,4-dimethoxyphenyl)-3-(2-methoxyphenyl)-[1,2,4]triazolo[3,4-b][1,3,4]thiadiazole (1 nM to 10 μM final). An aliquot of 45 μL of cells was added to a well of a 96-well microtiter plate containing 5 μL of a 10% DMSO in RPMI-1640 media solution without compound as the control sample for maximal cell proliferation (LMax). The samples were mixed by agitation and then incubated at 37° C. for 48 h in a 5% CO2-95% humidity incubator. After incubation, the samples were removed from the incubator and 25 μL of CellTiter-Glo™ reagent (Promega) was added. The samples were mixed by agitation and incubated at room temperature for 10-15 min. Plates were then read using a luminescent plate reader (Model SPECTRAfluor Plus, Tecan) to give Ltest values.
(§3) The samples were mixed by agitation and then incubated at 37° C. for 0.5 h in a 5% CO2-95% humidity incubator. After incubation, the samples were removed from the incubator and 25 μL of CellTiter-Glo™ reagent (Promega) was added. The samples were mixed by agitation and incubated at […] 10-15 min at room temperature in a 5% CO2-95% humidity incubator. Fluorescence was read as above, (LStart) defining luminescence for initial cell number used as baseline in GI50 determinations.
(§4) GI50 (dose for 50% inhibition of cell proliferation) is the concentration where [(LTest−LStart)/(LMax−LStart)]=0.5.
On the technique in general: In ATP-based viability assays light output follows the ATP content of the culture.

Assay [6] has as its system human colon carcinoma cell line HCT116. As to the kind of experiment: Inhibition of cell proliferation (GI50) in HCT116 cells. To be noted: HCT 116 cells, 48 h incubation. The method, then: as §2, §3, §4
The subject of assay [7] is human Burkitt's lymphoma cell line Namalwa. The assay is described as follows: Inhibition of cell proliferation (GI50) in Namalwa cells. The settings on record: Burkitts lymphoma cell, 48 h incubation. As to the method: as §2, §3, §4
Assay [8] relates to human lymphoma cell line Raji. As to the kind of experiment: Caspase cascade activation in Raji cells. To be noted: RAJ1 cells, 48 h incubation, read-out: caspase potency EC50 RAJ1. In outline:
as §1

Assay [9] deals with human B cell lymphoblastoid cell line Ramos. As to the kind of experiment: Caspase cascade activation in Ramos cells. The settings on record: 48 h incubation, read-out: caspase potency EC50 RAMOS. Put shortly: as §1
The subject of assay [10] is human cancer cell line H1299. The assay is described as follows: Caspase cascade activation in H1299 cells. The settings on record: NCI-H1299, 48 h incubation, read-out: caspase potency EC50 H1299. As to the method:
Human breast cancer cell lines T-47D, human hepatocellular carcinoma cell line SNU398, human colon carcinoma cell line HCT116, human cancer cell line H11299, human Burkitt's lymphoma cell line Namalwa, human lymphoma cell line Raji, and human B cell lymphoblastoid cell line Ramos were grown according to media component mixtures designated by American Type Culture Collection+10% FCS (Invitrogen Corporation), in a 5% CO2-95% humidity incubator at 37° C. T-47D and H1299 cells were maintained at a cell density between 50 and 80% confluency at a cell density of 0.1 to 0.6×10^6 cells/mL. Cells were harvested at 600×g and resuspended at 0.65×10^6 cells/mL into appropriate media+10% FCS. An aliquot of 22.5 μL of cells was added to a well of a 384-well microtiter plate containing 2.5 μL of a 10% DMSO in RPMI-1640 media solution containing 0.16 to 100 μM of 6-(3,4-dimethoxyphenyl)-3-(2-methoxyphenyl)-[1,2,4]triazolo[3,4-b][1,3,4]thiadiazole or other test compound (0.016 to 10 μM final). An aliquot of 22.5 μL of cells was added to a well of a 384-well microtiter plate containing 2.5 μL of a 10% DMSO in RPMI-1640 media solution without test compound as the control sample. The samples were mixed by agitation and then incubated at 37° C. for 48 h in a 5% CO2-95% humidity incubator. After incubation, the samples were removed from the incubator and 25 μL of a solution containing 14 μM of N-(Ac-DEVD)-N′-ethoxycarbonyl-R110 (SEQ ID No.:1) fluorogenic substrate (Cytovia, Inc.; WO99/18856), 20% sucrose (Sigma), 20 mM DTT (Sigma), 200 mM NaCl (Sigma), 40 mM Na PIPES buffer pH 7.2 (Sigma), and 500 μg/mL lysolecithin (Calbiochem) was added. The samples were mixed by agitation and incubated at room temperature. Using a fluorescent plate reader (Model SPECTRAfluor Plus, Tecan), an initial reading (T=0) was made approximately 1-2 min after addition of the substrate solution, employing excitation at 485 nm and emission at 530 nm, to determine the background fluorescence of the control sample. After the 3 h incubation, the samples were read for fluorescence as above (T=3 h).
The Relative Fluorescence Unit values (RFU) were used to calculate the sample readings as follows: RFU(T=3h)−Control RFU(T=0)=Net RFU(T=3h)
The activity of caspase cascade activation was determined by the ratio of the net RFU value for 6-(3,4-dimethoxyphenyl)-3-(2-methoxyphenyl)-[1,2,4]triazolo[3,4-b][1,3,4]thiadiazole (Example I) or other test compound to that of control samples. The EC50 (nM) was determined by a sigmoidal dose-response calculation (Prism 3.0, GraphPad Software Inc.).

Assay [11] relates to human lymphoma cell line Raji. The assay is described as follows: Inhibition of cell proliferation (GI50) in Raji cells. To be noted: 48 h incubation. The method, then: as §2, §3, §4
In assay [12] the test system is human B cell lymphoblastoid cell line Ramos. The assay is described as follows: Inhibition of cell proliferation (GI50) in Ramos cells. To be noted: 48 h incubation. As to the method:
as §2, §3, §4

Assay [13] relates to human leukemia cell line K562. As to the kind of experiment: Inhibition of cell proliferation (GI50) in K562 cells. To be noted: 48 h incubation. As to the method: as §2, §3, §4

One may read the EC50 as the concentration needed to bring the measured effect to its halfway point. As usually defined, the GI50 is the concentration at which growth is held to half of that of the control. The low end stands for greater sensitivity of the cells, the high end for lower sensitivity of the cells.

Consider `COc1ccccc1-c1nnc2sc(-c3ccc(C)c(N)c3)nn12` [Entry 5, 6-(3-Amino-4-methylphenyl)-3-(2-methoxyphenyl)-[1,2,4]triazolo[3,4-b][1,3,4]thiadiazole], for which the EC50 in [1] amounted to 0.121 µM; in assay [2], 0.04 µM; in assay [3], 0.033 µM; in assay [4], 0.018 µM. Further, the concentration for 50% growth inhibition (GI50) in [5] was 0.022 µM; in assay [6] it was 0.107 µM; in [7], 0.021 µM.
Consider `COc1ccc(-c2nn3c(-c4ccccc4OC)nnc3s2)cc1N` [Entry 7, 6-(3-Amino-4-methoxyphenyl)-3-(2-methoxyphenyl)-[1,2,4]triazolo[3,4-b][1,3,4]thiadiazole], for which the EC50 in assay [1] was determined as 0.284 µM; in assay [2], 0.021 µM; in assay [3] it was 0.019 µM; in assay [4], 0.018 µM. The GI50 in assay [5] came out at 0.1 µM; in assay [6], 0.083 µM; in assay [7] it was 0.014 µM.
Turning to `Clc1ccccc1-c1nnc2sc(-c3ccc4c(c3)OCO4)nn12` [L, 3-(2-Chlorophenyl)-6-(3,4-methylenedioxyphenyl)-[1,2,4]triazolo[3,4-b][1,3,4]thiadiazole], the EC50 in assay [1] is 2.62 µM; in [2] it was greater than 10 µM; in assay [8] it was greater than 10 µM; in assay [9] it was greater than 10 µM; in [3] it was greater than 10 µM; in assay [4] it was greater than 10 µM. The EC50 in assay [10] is greater than 10 µM.
As for `COc1ccc(-c2nn3c(-c4ccc(Cl)cc4)nnc3s2)cc1` [M, 3-(4-Chlorophenyl)-6-(4-methoxyphenyl)-[1,2,4]triazolo[3,4-b][1,3,4]thiadiazole], the EC50 in assay [1] is 4.48 µM; in [2], greater than 10 µM; in assay [8], greater than 10 µM; in assay [9], greater than 10 µM; in assay [3], greater than 10 µM; in [4], greater than 10 µM. Further, the EC50 in [10] worked out at 5.05 µM.
For the molecule `COc1ccc(-c2nn3c(-c4ccc(Cl)cc4Cl)nnc3s2)cc1OC` [N, 3-(2,4-Dichlorophenyl)-6-(3,4-dimethoxyphenyl)-[1,2,4]triazolo[3,4-b][1,3,4]thiadiazole], the EC50 in assay [1] was 5.02 µM; in assay [2] it was greater than 10 µM; in assay [8], greater than 10 µM; in assay [9], 5.78 µM; in assay [3], greater than 10 µM; in assay [4], 5.51 µM. In addition, the EC50 in [10] is greater than 10 µM.
Turning to `CCOc1ccc(-c2nn3c(-c4ccccc4Cl)nnc3s2)cc1` [O, 3-(2-Chlorophenyl)-6-(4-ethoxyphenyl)-[1,2,4]triazolo[3,4-b][1,3,4]thiadiazole], the EC50 in assay [1] was 2.43 µM; in [2] it was greater than 10 µM; in assay [8], greater than 10 µM; in assay [9], greater than 10 µM; in assay [3] it was greater than 10 µM; in assay [4] it was greater than 10 µM. Moreover, in [10], the EC50 was greater than 10 µM.
Take `CCOc1ccc(-c2nn3c(-c4ccccc4C)nnc3s2)cc1` [P, 6-(4-Ethoxyphenyl)-3-o-tolyl-[1,2,4]triazolo[3,4-b][1,3,4]thiadiazole]: the EC50 in assay [1] is 2.37 µM; in assay [2], 5.75 µM; in assay [8], greater than 10 µM; in assay [9], 5.71 µM; in assay [3], 5.55 µM; in assay [4] it was greater than 10 µM. For the same molecule, in assay [10], the 50% effective concentration (EC50) came out at 5.14 µM. For the same molecule, the GI50 in assay [6] is greater than 10 µM; in [7], 7.69 µM; in assay [11], 9.74 µM; in assay [12], 6.42 µM; in assay [13], 3.27 µM.
For `COc1cc(-c2nnc3sc(-c4ccco4)nn23)cc(OC)c1OC` [R, 6-(Furan-2-yl)-3-(3,4,5-trimethoxyphenyl)-[1,2,4]triazolo[3,4-b][1,3,4]thiadiazole], the EC50 was found to be 0.203 µM in [1]; 0.216 µM in assay [2]; 0.253 µM in assay [8]; 0.241 µM in assay [9]; 0.183 µM in assay [3]; 0.244 µM in assay [4]. Further, the GI50 stood at 1.5 µM in assay [6]; 0.45 µM in assay [7]; 0.651 µM in assay [11]; 0.442 µM in assay [12]; 0.15 µM in [13].
With `COc1cccc(-c2nn3c(-c4cc(OC)c(OC)c(OC)c4)nnc3s2)c1` [U, 6-(3-Methoxyphenyl)-3-(3,4,5-trimethoxyphenyl)-[1,2,4]triazolo[3,4-b][1,3,4]thiadiazole], the concentration giving a half-maximal response (EC50) was 2.74 µM in [1]; greater than 10 µM in assay [2]; greater than 10 µM in [8]; greater than 10 µM in assay [9]; greater than 10 µM in [3]; greater than 10 µM in assay [4]. The GI50 in [6] was greater than 10 µM; in assay [7] it was greater than 10 µM; in [11], 4.64 µM; in assay [12], 2.69 µM; in [13], 2.77 µM.
Turning to `COc1ccc(-c2nn3c(-c4cc(OC)c(OC)c(OC)c4)nnc3s2)cc1OC` [V, 6-(3,4-Dimethoxyphenyl)-3-(3,4,5-trimethoxyphenyl)-[1,2,4]triazolo[3,4-b][1,3,4]thiadiazole], the concentration for a half-maximal effect (EC50) in assay [1] was greater than 10 µM; in assay [2] it was greater than 10 µM; in assay [8], greater than 10 µM; in [9] it was 2.32 µM; in assay [3], greater than 10 µM; in assay [4], greater than 10 µM. Also, the GI50 in [6] is 5 µM; in assay [7] it was greater than 10 µM; in assay [11] it was 5 µM; in assay [12] it was 3.65 µM; in assay [13], 1.6 µM.
